Read-outs that look alike come from different tables or passages of the source.
Columns and labels:
[1] = assay type: in vitro ADME; settings: human, pH 7.4
Description: An in vitro skin permeation study was conducted using one ondansetron transdermal patch. The formulations used to prepare these systems are listed in Table 1, which includes weight and percent weight of each component of the dried formulations. “PVPP’ refers to a commercially available polyvinyl polypyrrolidone powder, which was added in an amount sufficient to balance the liquid nature of other solubizing agents in order to maintain the physical integrity of the patch. Other suitable and generally inert powders that can be used will become apparent to those skilled in the art, given the present description. “Duratak” is a tradename and refers to a commercially available polyisobutylene adhesive liquid available from National Starch and Chemical.
Each formulation was coated on a release liner and dried in an oven at 65° C. for two hours to remove water and other solvents. […]
The in vitro permeation of ondansetron through human cadaver skin from these discs was performed using Franz diffusion cells with a diffusion area of 1 cm^2 and a receiver solution capacity of 8 ml. […] The receiver solution collected was analyzed by HPLC to determine the concentration of ondansetron. The cumulative amount of ondansetron that permeated across the human cadaver skin was calculated using the measured ondansetron concentrations in the receiver solutions, which were plotted versus time and shown in FIG. 1. […]

[2] = Final pH of the patch; assay type: physicochemical; settings: pH of the transdermal patch

Cc1nccn1CC1CCc2c(c3ccccc3n2C)C1=O (stereo not drawn) [ondansetron, 1,2,3,9-tetrahydro-9-methyl-3-[(2-methyl-1H-imidazol-1-yl)methyl]-4H-carbazol-4-one]
cumulative amount of ondansetron that permeated through the skin ([1]; 24 h): 0.26 mg/cm^2
cumulative amount of ondansetron that permeated through the skin ([1]; 51 h): 0.51 mg/cm^2
final patch pH [2]: 4.7
